# ChEMBL document CHEMBL5226379, “Hypouricemic Actions of the Pericarp of Mangosteen in Vitro and in Vivo” (J Nat Prod, 2023)
# Calls of active or inactive are those of the source. The calls are words filed in the database; no cut-off is given here.
# Legend:
# [1] = test system: Rattus norvegicus; assay: Anti-hyperuricemic activity against potassium oxonate-induced hyperuricemic Sprague-Dawley rat model assessed as increase in urinary urate level at 4 mg/kg, po pre-administered via gavage twice daily for 5 times followed by potassium oxonate injection for 1 hrs prior to last dose and measured after 3 hrs relative to control; type: functional; details: time 123 hrs
# [2] = target: T1, Xanthine dehydrogenase/oxidase (Homo sapiens, UniProt P47989); assay: Inhibition of XOD (unknown origin) using xanthine as substrate assessed as inhibition of uric acid generation at 50 mg/L preincubated for 15 mins followed by xanthine addition and measured by spectrophotometric analysis relative to control
# [3] = test system: Rattus norvegicus; assay: (§1) Anti-hyperuricemic activity against potassium oxonate-induced hyperuricemic Sprague-Dawley rat model assessed as urinary urate at 2 mg/kg, po pre-administered via gavage twice daily for 5 times followed by potassium oxonate injection for 1 hrs prior to last dose and measured after 3 hrs; type: functional; details: time 123 hrs
# [4] = test system: Rattus norvegicus; assay: (§2) Anti-hyperuricemic activity against potassium oxonate-induced hyperuricemic Sprague-Dawley rat model assessed as fractional excretion of urate at 1 mg/kg, po pre-administered via gavage twice daily for 5 times followed by potassium oxonate injection for 1 hrs prior to last dose and measured after 3 hrs relative to control; type: functional; details: time 123 hrs
# [5] = test system: Mus musculus; assay: Hypouricemic activity in potassium oxonate-induced hyperuricemic Kunming mouse model assessed as decrease in serum uric acid level at 4 mg/kg, IG by phosphotungstic acid method; type: functional, organism-based; details: time <= 6.0 hrs, TDE = time-dependent effect
# [6] = Toxicity in Kunming mouse assessed as decrease in serum uric acid level upto 250 mg/kg; type: organism-based; details: in vivo
# [7] = test system: Rattus norvegicus; assay: Anti-hyperuricemic activity against potassium oxonate-induced hyperuricemic Sprague-Dawley rat model assessed as urinary urate level at 4 mg/kg, po pre-administered via gavage twice daily for 5 times followed by potassium oxonate injection for 1 hrs prior to last dose and measured after 3 hrs; type: functional; details: time 123 hrs
# [8] = test system: Rattus norvegicus; assay: (§3) Anti-hyperuricemic activity against potassium oxonate-induced hyperuricemic Sprague-Dawley rat model assessed as urinary creatinine level at 2 mg/kg, po pre-administered via gavage twice daily for 5 times followed by potassium oxonate injection for 1 hrs prior to last dose and measured after 3 hrs; type: functional; details: time 123 hrs
# [9] = test system: Mus musculus; assay: Hypouricemic activity in potassium oxonate-induced hyperuricemic Kunming mouse model assessed as decrease in serum uric acid level at 4 mg/kg, IG pre-administered with potassium oxonate for one hour followed by compound treatment and measured after 2 hrs by phosphotungstic acid method relative to control; type: functional; parameters: scale not given: the % may be the effect or the level left
# [10] = test system: Rattus norvegicus; assay: Anti-hyperuricemic activity against potassium oxonate-induced hyperuricemic Sprague-Dawley rat model assessed as urine volume at 2 mg/kg, po pre-administered via gavage twice daily for 5 times followed by potassium oxonate injection for 1 hrs prior to last dose and measured after 3 hrs; type: functional; details: time 123 hrs
# [11] = Acute toxicity in mouse assessed as mortality at 50 g/Kg, IG measured for 14 days; details: in vivo, po, 50000 mg/kg, 336 h, time 14 day
# [12] = test system: Rattus norvegicus; assay: (§4) Anti-hyperuricemic activity against potassium oxonate-induced hyperuricemic Sprague-Dawley rat model assessed as urinary creatinine level at 4 mg/kg, po pre-administered via gavage twice daily for 5 times followed by potassium oxonate injection for 1 hrs prior to last dose and measured after 3 hrs; type: functional; details: time 123 hrs
# [13] = test system: Rattus norvegicus; assay: Anti-hyperuricemic activity against potassium oxonate-induced hyperuricemic Sprague-Dawley rat model assessed as serum urea nitrogen level at 2 mg/kg, po pre-administered via gavage twice daily for 5 times followed by potassium oxonate injection for 1 hrs prior to last dose and measured after 3 hrs; type: functional; details: time 123 hrs
# [14] = test system: Rattus norvegicus; assay: as §2, with “at 2” for “at 1”; type: functional; details: time 123 hrs
# [15] = test system: Rattus norvegicus; assay: Anti-hyperuricemic activity against potassium oxonate-induced hyperuricemic Sprague-Dawley rat model assessed as urine volume at 1 mg/kg, po pre-administered via gavage twice daily for 5 times followed by potassium oxonate injection for 1 hrs prior to last dose and measured after 3 hrs; type: functional; details: time 123 hrs
# [16] = test system: Rattus norvegicus; assay: as §4, with “clearance of” for “urinary”, “measured per body surface area of 0.0311 m2” for “level”; type: functional; details: time 123 hrs
# [17] = test system: Rattus norvegicus; assay: Anti-hyperuricemic activity against potassium oxonate-induced hyperuricemic Sprague-Dawley rat model assessed as urinary urate level at 1 mg/kg, po pre-administered via gavage twice daily for 5 times followed by potassium oxonate injection for 1 hrs prior to last dose and measured after 3 hrs; type: functional; details: time 123 hrs
# [18] = test system: Rattus norvegicus; assay: as §1, with “excretion of” for “urinary”, “urate per volume of glomerular filtration measured per body surface area of 0.0311 m2” for “urate”; type: functional; details: time 123 hrs
# [19] = test system: Rattus norvegicus; assay: (§5) Anti-hyperuricemic activity against potassium oxonate-induced hyperuricemic Sprague-Dawley rat model assessed as serum creatinine level at 1 mg/kg, po pre-administered via gavage twice daily for 5 times followed by potassium oxonate injection for 1 hrs prior to last dose and measured after 3 hrs; type: functional; details: time 123 hrs
# [20] = Acute toxicity in mouse assessed as change in body weight at 50 g/Kg, IG measured for 14 days; details: in vivo, po, 50000 mg/kg, 336 h, time 14 day
# [21] = test system: Rattus norvegicus; assay: as §1, with “clearance of” for “urinary”, “urate measured per body surface area of 0.0311 m2” for “urate”, “1” for “2”; type: functional; details: time 123 hrs
# [22] = test system: Rattus norvegicus; assay: as §2, with “at 4” for “at 1”; type: functional; details: time 123 hrs
# [23] = test system: Rattus norvegicus; assay: as §1, with “clearance of” for “urinary”, “urate measured per body surface area of 0.0311 m2” for “urate”; type: functional; details: time 123 hrs
# [24] = test system: Rattus norvegicus; assay: as §3, with “clearance of” for “urinary”, “measured per body surface area of 0.0311 m2” for “level”; type: functional; details: time 123 hrs
# [25] = test system: Rattus norvegicus; assay: Anti-hyperuricemic activity against potassium oxonate-induced hyperuricemic Sprague-Dawley rat model assessed as ratio of urinary urate to urinary creatinine at 2 mg/kg, po pre-administered via gavage twice daily for 5 times followed by potassium oxonate injection for 1 hrs prior to last dose and measured after 3 hrs; type: functional; details: time 123 hrs
# [26] = test system: Mus musculus; assay: Hypouricemic activity in potassium oxonate-induced hyperuricemic Kunming mouse model assessed as decrease in serum XOD level at 1 to 4 mg/kg, IG pre-administered via gavage twice daily for 5 times followed by potassium oxonate injection for 1 hrs prior to last dose; type: functional, organism-based; details: dose 1-4 mg/kg, time 5.0 day
# [27] = test system: Rattus norvegicus; assay: as §1, with “glomerular load of” for “urinary”, “urate measured per body surface area of 0.0311 m2” for “urate”, “1” for “2”; type: functional; details: time 123 hrs
# [28] = test system: Rattus norvegicus; assay: Anti-hyperuricemic activity against potassium oxonate-induced hyperuricemic Sprague-Dawley rat model assessed as serum urate level at 2 mg/kg, po pre-administered via gavage twice daily for 5 times followed by potassium oxonate injection for 1 hrs prior to last dose and measured after 3 hrs; type: functional; details: time 123 hrs
# [29] = test system: Rattus norvegicus; assay: Anti-hyperuricemic activity against potassium oxonate-induced hyperuricemic Sprague-Dawley rat model assessed as urine volume at 4 mg/kg, po pre-administered via gavage twice daily for 5 times followed by potassium oxonate injection for 1 hrs prior to last dose and measured after 3 hrs; type: functional; details: time 123 hrs
# [30] = test system: Rattus norvegicus; assay: as §5, with “clearance of” for “serum”, “measured per body surface area of 0.0311 m2” for “level”; type: functional; details: time 123 hrs
# [31] = test system: Mus musculus; assay: Hypouricemic activity in potassium oxonate-induced hyperuricemic Kunming mouse model assessed as decrease in serum uric acid level at 5 mg/kg, IG pre-administered via gavage twice daily for 5 times followed by potassium oxonate injection for 1 hrs prior to last dose by phosphotungstic acid method; type: functional; details: time 5.0 day
# [32] = target: T1, Xanthine dehydrogenase/oxidase; assay: Inhibition of XOD (unknown origin) using xanthine as substrate assessed as inhibition of uric acid generation at 100 mg/L preincubated for 15 mins followed by xanthine addition and measured by spectrophotometric analysis relative to control
# [33] = test system: Rattus norvegicus; assay: Anti-hyperuricemic activity against potassium oxonate-induced hyperuricemic Sprague-Dawley rat model assessed as serum urea nitrogen level at 4 mg/kg, po pre-administered via gavage twice daily for 5 times followed by potassium oxonate injection for 1 hrs prior to last dose and measured after 3 hrs; type: functional; details: time 123 hrs
# T1 sequence (P47989 whole entry): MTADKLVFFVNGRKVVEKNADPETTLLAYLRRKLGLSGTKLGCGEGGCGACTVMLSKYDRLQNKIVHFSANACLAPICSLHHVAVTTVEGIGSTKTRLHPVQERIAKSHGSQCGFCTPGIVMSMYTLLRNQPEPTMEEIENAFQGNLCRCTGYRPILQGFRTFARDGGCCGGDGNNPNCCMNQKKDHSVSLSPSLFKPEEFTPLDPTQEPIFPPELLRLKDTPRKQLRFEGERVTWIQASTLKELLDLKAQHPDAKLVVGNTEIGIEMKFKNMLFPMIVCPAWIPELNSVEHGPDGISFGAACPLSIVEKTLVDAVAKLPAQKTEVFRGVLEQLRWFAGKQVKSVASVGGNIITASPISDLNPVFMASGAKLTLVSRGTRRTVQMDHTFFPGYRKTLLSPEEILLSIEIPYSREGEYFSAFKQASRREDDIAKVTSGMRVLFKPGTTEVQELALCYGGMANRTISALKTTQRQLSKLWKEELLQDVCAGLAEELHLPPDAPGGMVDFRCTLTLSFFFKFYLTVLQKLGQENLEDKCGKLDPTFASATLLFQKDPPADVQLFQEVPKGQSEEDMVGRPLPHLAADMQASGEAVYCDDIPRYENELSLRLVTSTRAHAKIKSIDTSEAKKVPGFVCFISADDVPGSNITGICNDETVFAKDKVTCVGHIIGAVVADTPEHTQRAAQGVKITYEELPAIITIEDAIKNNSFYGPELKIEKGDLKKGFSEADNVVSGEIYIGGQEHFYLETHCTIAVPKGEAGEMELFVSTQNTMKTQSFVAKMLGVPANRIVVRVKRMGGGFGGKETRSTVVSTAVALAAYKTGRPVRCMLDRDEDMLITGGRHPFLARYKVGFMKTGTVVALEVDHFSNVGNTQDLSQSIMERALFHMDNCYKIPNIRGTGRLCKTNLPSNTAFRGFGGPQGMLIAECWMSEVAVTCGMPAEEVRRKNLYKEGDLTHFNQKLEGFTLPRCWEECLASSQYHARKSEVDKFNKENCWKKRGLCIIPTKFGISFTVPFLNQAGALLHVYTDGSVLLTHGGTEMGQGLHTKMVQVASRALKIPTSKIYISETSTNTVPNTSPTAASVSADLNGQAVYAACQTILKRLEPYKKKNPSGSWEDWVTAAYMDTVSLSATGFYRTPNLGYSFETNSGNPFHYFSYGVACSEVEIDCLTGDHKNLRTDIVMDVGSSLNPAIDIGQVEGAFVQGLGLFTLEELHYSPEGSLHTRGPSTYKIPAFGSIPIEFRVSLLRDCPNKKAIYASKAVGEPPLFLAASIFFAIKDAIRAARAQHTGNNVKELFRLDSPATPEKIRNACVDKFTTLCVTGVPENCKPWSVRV
compound,measurement,setting,value
COc1c(O)cc2oc3cc(O)c(CC=C(C)C)c(O)c3c(=O)c2c1CC=C(C)C [MANGOSTIN],Activity,[1],46%
same,inhibition at 50 µg/mL,[2],4.9%
same,Activity,[3],465 µmol
same,Activity,[4],71%
same,Activity,[5],Tde
same,Activity,[6],Non-Toxic
same,Activity,[7],2.4 mmol/L
same,Activity,[8],0.8 mmol/L
same,Activity,[9],63%
same,Activity,[10],5.6 mL
same,Activity,[11],Non-Toxic
same,Activity,[12],0.9 mmol/L
same,Activity,[13],10.9 mmol/L
same,Activity,[14],77%
same,Activity,[15],6.8 mL
same,Activity,[16],18.6 mL/min
same,Activity,[17],2.4 mmol/L
same,Activity,[18],5.8 µmol/L
same,Activity,[19],54.4 µmol/L
same,Activity,[20],Non-Toxic
same,Activity,[21],13.6 mL/min
same,Activity,[22],85%
same,Activity,[23],11.2 mL/min
same,Activity,[24],15.4 mL/min
same,Ratio,[25],3.2
same,Activity,[26],inactive
same,Activity,[27],4.4 µmol/min
same,Activity,[28],236 µmol/L
same,Activity,[29],6.2 mL
same,Activity,[30],21.4 mL/min
same,Activity,[31],Active
same,inhibition at 100 µg/mL,[32],1.4%
same,Activity,[33],10.1 mmol/L
